# In US9127027B2, “Epoxyeicosatrienoic acid analogs and methods of making and using the same” (The Medical College of Wisconsin, Inc., priority 2011, dated 2015):
# Like-named read-outs stand apart in the source and are kept apart here.
# Experiments:
# [1] = system: bovine coronary artery; assay: Vasorelaxant activity in bovine coronary artery rings precontracted with U-46619; assay type: cell-based; settings: for Vascular Relax. % (10 μM): 100% relaxation = basal pre-U-46619 tension; for EC50: Bos taurus
# Protocol: Vasorelaxant activity was measured in bovine coronary artery. Bovine hearts were obtained and the left anterior descending coronary artery was dissected and cleaned of connective tissue. Vessels of 1 mm diameter were cut into rings of 3 mm width as previously described (3, 27, 39). […] The vessels were suspended from a pair of stainless steel hooks in a 6-ml water-jacketed organ chamber. […] One hook was anchored to a steel rod and the other hook to a force transducer (model FT-03C; Grass Instruments, West Warwick, R.I.). Tension of the vessel was measured by an ETH-400 bridge amplifier, and the data were acquired with a MacLab 8e analog-to-digital converter and MacLab software version 3.5.6 (AD Instruments, Milford, Mass.) and stored on a Macintosh computer for subsequent data analysis.
# Basal tension was set at the length-tension maximum of 3.5 g and equilibrated for 1.5 h. KCl (40 mM) was added to the chamber until reproducible maximal contractions were maintained. […] Cumulative additions of compounds were added to the chamber. Between concentration-response curves, the chambers were rinsed with fresh Krebs buffer, 40 mM KCl was administered to determine the maximum contraction, and the vessels were rinsed. Consecutive concentration-response curves were performed with 14,15-EET followed by a concentration-response curve to a compound. The experiment was always repeated with the order of the agonists reversed. […] The relaxation was plotted versus compound concentration and the EC50 determined utilizing statistical software.
# [2] = system: Spontaneously Hypertensive Rats (SHR); assay: Telemetry blood pressure and heart rate in spontaneously hypertensive rats; assay type: in vivo, rat; settings: for blood pressure after two weeks of treatment: 2 mg/d i.p. osmotic pump, vehicle 141±3.0; for heart rate: 2 mg/d i.p., vehicle 331±17.0
# From the text: (§1) Telemetry Blood Pressure Measurement. To accurately detect changes in blood pressure and heart rate, telemetry transmitters (Data Sciences Inc., St. Paul, Minn.) were implanted in rats one week prior to the experimental period according to manufacturer's specifications while under pentobarbital anesthesia. In brief, an incision was made to expose the femoral artery that was occluded to allow insertion of the transmitter catheter. The catheter was secured in place with tissue glue and the transmitter body was sutured in place and the incision line was closed. Rats were allowed to recover from surgery and were returned to individual housing. A baseline arterial pressure was recorded for prior to the experimental period. Mean arterial pressure was continuously recorded throughout the experimental period.
# Telemetry transmitters were implanted into male SHR as described. After the surgical recovery period, baseline mean arterial pressure was recorded. In this series of experiments, EET analogs were administered by osmotic pump (2 mg/d, i.p.) and blood pressure was continuously monitored.
# [3] = system: angiotensin II induced hypertensive rats; assay: Angiotensin II hypertension: telemetry blood pressure, heart rate, sodium and protein excretion; assay type: in vivo, rat; settings: Ang II hypertension; for blood pressure at end of two-week treatment: 2 mg/d i.p., vehicle 150±3.2; for heart rate: vehicle 396±25.0
# From the text: as §1
# Telemetry transmitters were implanted into male Sprague-Dawley rats (225-275 g) as described. After recording basal blood pressure, osmotic pumps were implanted (s.c.) to deliver angiotensin at a dose of 60 ng/min. EET analogs were administered by an osmotic pump (2 mg/d, i.p.) and blood pressure was continuously monitored.
# Animals were placed in a metabolic cage and urine was collected in a conical tube. Samples were stored at −80° C. until assayed. Urinary protein excretion was assessed as an index for renal injury. Protein was determined by the Bradford colorimetric method and creatinine was determined by the picric acid colorimetric method.
# [4] = biological target: Human recombinant sEH (Homo sapiens (Human), UniProt P34913); assay: Soluble epoxide hydrolase inhibition (PHOME fluorescent substrate); assay type: biochemical
# Protocol: Compounds were tested for their ability to inhibit recombinant soluble epoxide hydrolase (sEH) protein. The assay utilizes (3-Phhenyl-oxiranyl)-acetic acid cyano-(6-methoxy-naphthalen-2-yl)-methyl ester (PHOME), a sensitive substrate for sEH that can be used to monitor the activity of both human and murine enzymes. […] Human recombinant sEH was incubated with substrate and compounds ranging in concentration from 0.1 to 1000 nM.
# [5] = system: Wistar-Kyoto (WKY) rats administered cisplatin; assay: Cisplatin-induced nephrotoxicity in rats pretreated with EET analogs; assay type: in vivo, rat; settings: for BUN: day 5 after cisplatin 7 mg/kg i.p., vehicle 241±51; for urinary NAG / plasma creatinine (PCr) / KIM-1 urinary excretion: day 5 after cisplatin; for urinary NAG: vehicle 3.0±0.6; for plasma creatinine (PCr): vehicle 3.1±0.2; for KIM-1 urinary excretion: vehicle 296±94; for cisplatin-induced proteinuria: vehicle 53±5; for reductions in renal mRNA expressions of inflammatory markers (TNF-α, IL-6, IL-1β) / reduction in elevated renal expressions of GRP78 and caspase 12 mRNAs: cisplatin-administered rats; for reduction in elevated renal expressions of GRP78 and caspase 12 mRNAs: vs vehicle treatment; for decrease in kidney expression of NOX1 and gp91phox mRNAs / reduction in urinary excretion of NAG and KIM-1 / reduction of cisplatin-induced proteinuria / reductions in elevated serum creatinine and BUN: vs vehicle-treated cisplatin rats
# From the text: Experiments were approved and carried out according to the guidelines of the Institutional Animal Care and Use Committee, Medical College of Wisconsin, Milwaukee, USA. Male Wistar-Kyoto (WKY) rats weighing 180-200 g (Charles River, Mass., USA). All animals were kept in a temperature-controlled environment with a 12-h light/dark cycle and were allowed free access to food and water at all times. An acclimatization period of 6 days was allowed for the rats before experimentation. The rats were assigned into four groups. Group 1 (WKY, n=5-7): Rats received drinking water ad libitum for seven days and on day 7 DMSO (Sigma Aldrich, St. Louis, Mo., USA) was administered (300-500 μl i.p). […] Group 2 (CP+Vehicle, n=5-7): Rats were pretreated with vehicle (0.05% ethanol and 0.1% PEG-400 v/v) in drinking water for seven days and then on day 7 CP was administered (7 mg/kg i.p.) followed by another five days treatment with vehicle. Group 3 (CP+EET-A, n=5-7): These rats are pretreated with the EET analog EET-A (10 mg/kg/day p.o.) for seven days in drinking water and then on day 7 administered CP as a single injection (7 mg/kg i.p.) followed by another five days treatment with EET-A. Group 4 (CP+EET-B, n=5-7): Rats of this group are pretreated with another EET analog EET-B (10 mg/kg/day) for 7 days in drinking water and then on day 7 CP was administered as a single injection (7 mg/kg i.p.) followed by another five days treatment with EET-B. Rats of groups 2, 3 and 4 had free access to vehicle, EET-A and -B in drinking water, respectively. One day before the rats were sacrificed, urine of each rat was collected over a 24-h period, and the volume was measured. Five days after CP or DMSO administration, rats were anesthetized for blood sample collection followed by euthanasia and tissue collection. Urine and plasma samples were kept frozen at −80° C. until analyzed. The kidneys were removed, washed with physiological saline and stored at −80° C. until used for RT-PCR analysis, thiobarbituric acid reactive substance (TBARS) measurement and caspase 3 activity assay. A part of the kidney also preserved in 10% buffered formalin for histological examination.
# The levels of blood urea nitrogen (BUN) (BioAssay Systems, Hayward, Calif., USA) and serum creatinine (Cayman Chemical Company, Ann Arbor, Mich., USA) were measured spectrophotometrically using commercial kits. Urinary content of creatinine and protein were measured using commercial kits (Cayman Chemical Company, Ann Arbor, Mich., USA), and the activity of urinary N-acetyl-b-glucosaminidase (NAG) in the urine was measured by a kit from Diazyme (Diazyme Laboratories, Poway, Calif., USA). While urine content of kidney injury molecule-1 (KIM-1) was measured using ELISA (R&D Systems, Inc. Minneapolis, Minn., USA).
# Malondialdehyde (MDA) is a thiobarbituric acid reactive substance (TBARS) that is formed as an end-product of lipid peroxidation and serves as an important index of oxidative stress. To determine the kidney MDA level, the rat kidney was homogenized with buffer containing 1.5% potassium chloride to obtain a 1:10 (w/v) whole kidney homogenate. Using a commercially available kit (Cayman Chemical Company, Ann Arbor, Mich., USA), MDA was measured spectrophotometrically after reaction with thiobarbituric acid. […]
# Real-Time analysis was carried out to assess the expression of oxidative (gp91phox, NOX1, SOD1, SOD2, SOD3), inflammatory (TNF-α, IL-6, IL-1β), apoptotic (Bax, Bak, Bcl-2) and endoplasmic reticulum stress (GRP78, caspase 12) related genes in the kidney. Total RNA was isolated from kidney homogenate using TRIzol LS reagents (Invitrogen Life Technologies, Carlsbad, Calif., USA) according to the manufacturer's instructions. The isolated RNA was treated with RNase-free DNase (Invitrogen, Carlsbad, Calif., USA) to remove traces of genomic DNA contamination. […]
# [6] = system: NCCIT cells; assay: Cell viability (alamar blue), cisplatin with concurrent EET-A; assay type: cell-based, human
# Protocol: In this study, HEK293, U87MG, Hela cell-lines were obtained from the ATCC (Manassas, Va., USA) (HEK293, U87MG, Hela), and NCCIT was collected from Department of Pediatrics, UT Southwestern Medical Center at Dallas, Tex., USA. All cell lines were maintained in DMEM or RPIM with 10% fetal bovine serum and penicillin/streptomycin purchased from Life Technologies (Grand Island, N.Y., USA). Cisplatin was purchased from either Sigma (St. Louis, Mo., USA) or CalBiochem/EMD Biosciences (Billerica, Mass., USA). Cells were seeded in 96-well plates at 500 to 4,000 cells per well depends on cell type. […] Cell viability was measured by alamar blue assay using resazurin (Sigma Aldrich) according to the manufacturer's guidelines. Viability results were measured by fluorescence/absorbance in a 96-well plate reader from BMG Labtech (Cary, N.C., USA) and the IC50 was calculated by GraphPad Prism® software (GraphPad Software Inc, La Jolla, Calif., USA).
# [7] = Table 2, read-out: Vascular relaxation EC50
# [8] = bovine coronary artery, read-out: Vascular Relax. EC50
# [9] = Table 1 head prints μM (Table 2 prints nM for same numbers), read-out: sEHi IC50
# [10] = Table 2, read-out: SEHi activity IC50
# Chain of Human recombinant sEH (P34913 whole entry): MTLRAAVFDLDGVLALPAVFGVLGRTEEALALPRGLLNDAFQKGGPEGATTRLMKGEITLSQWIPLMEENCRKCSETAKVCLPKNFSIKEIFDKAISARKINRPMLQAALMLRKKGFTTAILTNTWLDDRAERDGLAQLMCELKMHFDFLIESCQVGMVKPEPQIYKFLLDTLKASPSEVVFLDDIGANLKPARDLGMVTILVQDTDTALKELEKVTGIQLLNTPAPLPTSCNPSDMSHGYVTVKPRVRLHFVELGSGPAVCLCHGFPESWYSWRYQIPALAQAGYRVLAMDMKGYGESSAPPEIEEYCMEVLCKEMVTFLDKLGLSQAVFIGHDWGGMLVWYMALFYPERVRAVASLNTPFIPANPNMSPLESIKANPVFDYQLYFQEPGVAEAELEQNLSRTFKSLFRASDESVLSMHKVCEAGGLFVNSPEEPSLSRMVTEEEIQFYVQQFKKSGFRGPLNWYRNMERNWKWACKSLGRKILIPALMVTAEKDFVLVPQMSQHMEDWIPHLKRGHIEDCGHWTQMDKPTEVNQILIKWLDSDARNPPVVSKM
smiles,measurement,setting,value
"CCCCCNC(=O)NCCCC/C=C\CCCCCCC(=O)N[C@@H](CC(=O)O)C(=O)O (stereo in doubt) [Compound 7, (S)-2-(13-(3-n-Pentylureido)tridec-8(Z)-enamido)succinic acid]",Vascular Relax. % (10 μM),[1],91%
same,Vascular relaxation % relaxation (10 μM),[1]; Table 2,91%
same,EC50,[1]; [7],1600 nM
same,EC50,[1]; [8],1600 nM
same,blood pressure after two weeks of treatment,[2],131±2.0 mmHg
same,heart rate,[2],316±23.0 BPM
same,blood pressure at end of two-week treatment,[3],135±5.0 mmHg
same,heart rate,[3]; two weeks,410±25.0 BPM
CCCCCNC(=O)NCCCC/C=C\CCCCCCc1nnn[nH]1 [Compound 20],Vascular Relax. % (10 μM),[1],119%
same,Vascular relaxation % relaxation (10 μM),[1]; Table 2,119%
same,EC50,[1]; [7],180 nM
same,EC50,[1]; [8],180 nM
same,blood pressure after two weeks of treatment,[2],137±1.0 mmHg
same,IC50,[4]; [9],0.011 µM
same,IC50,[4]; [10],0.011 µM
CCCCCCC(=O)N(CCCC/C=C\CCCCCCC1=NOS(=O)N1)C(C)C (stereo not drawn) [Compound 26],Vascular Relax. % (10 μM),[1],109%
same,Vascular relaxation % relaxation (10 μM),[1]; Table 2,109%
same,EC50,[1]; [7],320 nM
same,EC50,[1]; [8],320 nM
same,blood pressure after two weeks of treatment,[2],150±5.0 mmHg
same,heart rate,[2],344±23.0 BPM
same,IC50,[4]; [9],> 0.5 µM
same,IC50,[4]; [10],> 0.5 µM
"CCCCCCC(=O)N(CCCCCOc1cccc2sc(NC(C)=O)nc12)C(C)C [Compound 30, N-(5-(2-Acetamidobenzo[d]thiazol-4-yloxy)pentyl)-N-isopropylheptanamide]",Vascular Relax. % (10 μM),[1],96%
same,Vascular relaxation % relaxation (10 μM),[1]; Table 2,96%
same,blood pressure after two weeks of treatment,[2],129±2.0 mmHg
same,heart rate,[2],318±24.0 BPM
same,decrease in blood pressure compared to vehicle,[2]; two weeks treatment,12 mmHg
same,blood pressure at end of two-week treatment,[3],107±2.0 mmHg
same,sodium excretion (natriuresis),"[3]; two weeks, vehicle 1.9±0.7",2.7 ± 0.3 mmol/day
same,heart rate,[3]; two weeks,385±16.0 BPM
"CCCCCNC(=O)NCCCC/C=C\CCCCCCC(=O)NC(CC(=O)[O-])C(=O)[O-].[Na+].[Na+] [EET-A, Sodium (S)-2-(13-(3-pentylureido)tridec-8(Z)-enamido)succinate]",kidney TBARS formation,"[5]; 10 mg/kg/d p.o., after cisplatin, vehicle 16±2",7 ± 1 µmol/g
same,BUN,[5]; 10 mg/kg/d p.o.,108 ± 30 mg/dL
same,urinary NAG,[5]; 10 mg/kg/d p.o.,0.5±0.1 U/d
same,plasma creatinine (PCr),[5]; 10 mg/kg/d p.o.,2.0 ± 0.2 mg/dL
same,KIM-1 urinary excretion,[5]; 10 mg/kg/d p.o.,85 ± 29 ng/day
same,cisplatin-induced proteinuria,[5]; 10 mg/kg/d p.o.,33 ± 8 mg/day
same,"reductions in renal mRNA expressions of inflammatory markers (TNF-α, IL-6, IL-1β)",[5],40-60%
same,reduction in elevated renal expressions of GRP78 and caspase 12 mRNAs,[5],2-4 fold
same,decrease in kidney expression of NOX1 and gp91phox mRNAs,[5],2-3 folds
same,reduction in urinary excretion of NAG and KIM-1,[5],30-50%
same,reduction of cisplatin-induced proteinuria,[5],≥ 40%
same,reductions in elevated serum creatinine and BUN,[5],30-50%
"CCCCCCC(=O)N(CCCCCOc1cccc2sc(NC(=O)C(C)(C)C)nc12)C(C)C [EET-B, N-Isopropyl-N-(5-(2-pivalamidobenzo[d]thiazol-4-yloxy)pentyl)heptanamide]",BUN,[5]; 10 mg/kg/d p.o.,120 ± 33 mg/dL
same,urinary NAG,[5]; 10 mg/kg/d p.o.,0.6±0.2 U/d
same,plasma creatinine (PCr),[5]; 10 mg/kg/d p.o.,1.4 ± 0.2 mg/dL
same,KIM-1 urinary excretion,[5]; 10 mg/kg/d p.o.,57 ± 13 ng/day
same,cisplatin-induced proteinuria,[5]; 10 mg/kg/d p.o.,32 ± 3 mg/day
same,"reductions in renal mRNA expressions of inflammatory markers (TNF-α, IL-6, IL-1β)",[5],40-60%
same,reduction in elevated renal expressions of GRP78 and caspase 12 mRNAs,[5],2-4 fold
same,decrease in kidney expression of NOX1 and gp91phox mRNAs,[5],2-3 folds
same,reduction in urinary excretion of NAG and KIM-1,[5],30-50%
same,reduction of cisplatin-induced proteinuria,[5],≥ 40%
same,reductions in elevated serum creatinine and BUN,[5],30-50%
N.N.[Cl][Pt][Cl] [cisplatin],IC50,"[6]; read-out: IC50 for cisplatin, with 0 ng/ml EET-A",2600 nM
same,IC50,"[6]; read-out: IC50 for cisplatin, with 1 ng/ml EET-A",2550 nM
same,IC50,"[6]; read-out: IC50 for cisplatin, with 10 ng/ml EET-A",2440 nM
